Assay results reported in patent US6432928B1, “Complexes and their compositions” (Chinoin Gyogyszer es Vegyeszeti Termekek Gyara Rt., priority 1994, dated 2002).
In brackets after ≈: the same amount, converted by molar mass. Like-named read-outs stand apart in the source and are kept apart here. Blank lines part the entries; values can stand above or below the compound they belong to.

Assays:
[1] = Appearance and Taxol content of the compositions as prepared; format: physicochemical; conditions: Taxol alone dissolved in ethanol or 1:1 ethanol and water
[2] = cited from earlier work
physchem [3] = conditions: 22 °C, thermodynamic from solid
physchem [4] = conditions: 25 °C, water
[5] = Solubility of Taxol with cyclodextrins and co-solvents, Higuchi-Connor method, HPLC; conditions: for solubility: Taxol with RAMEB
cell line PC 3 = test: SRB-assay of cell growth, cell line PC 3; format: cell-based, human; conditions: for cell growth by SRB-assay, extinction at 540 nm / cell growth, % of control: PC 3, 10^−6M of Taxol and cyclodextrin; for cell growth, % of control: control = 100%; for toxicity to the cells, in words: PC 3, tested concentration of Table 2 (10^−6M, 0.001 mM)
Method: (§1) As control solutions containing similar amounts of cyclodextrins and no Taxol, further the Taxol-Cremophor EL composition. Cremophor EL solution and the untreated cell cultures were examined.
(§2) The experiments were carried out and evaluated on both cell lines according to the examination methods of F. Skehan et al [New Colorimetric Assay of Anticancer Drug Screening, J. Natl. Canc. Inst. 82, 1107-1113 (1990) and A. Martin and M. Clynes (Comparison of 5 Microplate Colorimetric Assays for in Vitro Cytotoxicity Testing and Cell Proliferation Assays, Cytotechnology 11, 49-58 (1993)] in the Pathological and Experimental Cancer Research Institute No. 1 of the Semmelweis Medical University, Budapest.
(§3) The cells were exposed in a RPMI 1640 medium containing 10% of Foetal Calf Serum (FCS) medium on a microplate of 96 wells, by placing 5000 cells in 100 μl of medium.
(§4) The cell cultures were treated after 24 hours with a solution containing the test substances in 100 μl of a FCS-free RPMI medium, thus the final concentration of FCS became 5%. Every evaluation point is the averaged result of 8 parallels, the control was present in 8 parallels on each plate, thus the evaluation point was obtained by averaging 24 parallels. The eight test compositions were examined simultaneously, in one test on each cell line.
(§5) After 72 and 96 hours the cell growth was measured by SRB-assay (the determining method is SRB-painting of the total protein, the total protein is proportional to the cell growth, the extinction was read by a Microplate reader at a wave length of 540 nm).

cell line K562 = test: SRB-assay of cell growth, cell line K 562; format: cell-based, human; conditions: for cell growth by SRB-assay, extinction at 540 nm / cell growth, % of control: K562, 10−6M of Taxol and cyclodextrin; for cell growth, % of control: control = 100%; for toxicity to the cells, in words: K562, tested concentration of Table 3 (10−6M, 0.001 mM)
Method: as §1, §2, §3, §4, §5

[6] = cited from earlier work; remark: listed apart in the source
mouse = mouse experiments, a 50% triacetine emulsion; cited from earlier work

- behaviour on dilution [1]: immediately precipitates when diluted
- solubility at 24 h (physchem [3]; 2:1 ethanol:water, aqueous with cosolvent or surfactant or cyclodextrin): 4000 µg/mL (≈ 4.68 mM)
- solubility at 24 h (physchem [3]; DIMEB in 2:1 ethanol:water, aqueous with cosolvent or surfactant or cyclodextrin): 4000 µg/mL (≈ 4.68 mM)
- solubility at 24 h (physchem [3]; DIMEB in water, aqueous with cosolvent or surfactant or cyclodextrin): ~1000 µg/mL (≈ 1.17 mM)
- solubility at 24 h (physchem [3]; OH-P-βCD in water, aqueous with cosolvent or surfactant or cyclodextrin): 100 µg/mL (≈ 0.117 mM)
- solubility at 24 h (physchem [3]; RAMEB in 2:1 ethanol-water, aqueous with cosolvent or surfactant or cyclodextrin): 4000 µg/mL (≈ 4.68 mM)
- solubility at 24 h (physchem [3]; RAMEB in ethanol-water, aqueous with cosolvent or surfactant or cyclodextrin): 4000 µg/mL (≈ 4.68 mM)
- solubility at 24 h (physchem [3]; water): 5.9 µg/mL (≈ 0.00691 mM)
- solubility at 24 h (physchem [3]; γ-CD in 2:1 ethanol:water, aqueous with cosolvent or surfactant or cyclodextrin): 4000 µg/mL (≈ 4.68 mM)
- solubility (physchem [4]): 0.55 to 0.59 µg/mL (≈ 0.000644 to 0.000691 mM)
- remark (appearance) ([5]; Taxol 4 mg/ml with γ-CD 1:63, 2:1 ethanol:water, remark wraps over r10-r11: white suspension): white
- remark (appearance) ([5]; Taxol 4 mg/ml, no CD, 2:1 ethanol:water, remark wraps over r6-r9: clear solution. opalescening. then white precipitate): clear solution.
- solubility ([5]; molar ratio Taxol:CD 1:278, water): 859.9 µg/mL
- solubility ([5]; molar ratio Taxol:CD 1:750, water): 42.5 µg/mL
- solubility ([5]; molar ratio Taxol:CD 1:1500, water): 4.4 µg/mL
- solubility ([5]; molar ratio Taxol:CD 1.300, water): 231.7 µg/mL
SMILES: CC(=O)O[C@H]1C(=O)[C@@]2(C)[C@H]([C@H](OC(=O)c3ccccc3)[C@]3(O)C[C@H](OC(=O)[C@H](O)[C@@H](NC(=O)c4ccccc4)c4ccccc4)C(C)=C1C3(C)C)[C@]1(OC(C)=O)CO[C@@H]1C[C@@H]2O (relative stereo) [Taxol, [2aR-[2aα,4β,4αβ,6β,9α(αR*,βS*a11α,12α,12aα,12bα]]-β-(benzoylamino)-α-hydroxy-benzene-propanoic acid 6,12-b-bis(acetyloxy)-12-(benzoyloxy)-2a,3-4,4a,5,6,9,10,11,12,12a,12b-dodecahydro-4,11-dihydroxy-4a,8,13,13-tetra-methyl-5-oxo-7,11-methano-1H-cyklodeca[3,4]-benz-[1,2-b]-oxeth-9-yl-ester]]
- solubility ([2]; 250-350 moles of a methylated cyclodextrin derivative related to 1 mole of Taxol (Hungarian application P93 01373)): about 1 mg/ml
- solubility of Taxol ([2]; mixed micelle system with bile acid salts and phospholipide): 800 µg/mL
- solubility ([2]; with γ-cyclodextrin, molar ratio of 1:20): 160 µg/mL

SMILES: COC[C@H]1O[C@@H]2O[C@H]3[C@H](O)[C@@H](OC)[C@@H](O[C@H]4[C@H](O)[C@@H](OC)[C@@H](O[C@H]5[C@H](O)[C@@H](OC)[C@@H](O[C@H]6[C@H](O)[C@@H](OC)[C@@H](O[C@H]7[C@H](O)[C@@H](OC)[C@@H](O[C@H]8[C@H](O)[C@@H](OC)[C@@H](O[C@H]1[C@H](O)[C@H]2OC)O[C@@H]8COC)O[C@@H]7COC)O[C@@H]6COC)O[C@@H]5COC)O[C@@H]4COC)O[C@@H]3COC [DIMEB, heptakis-2,6-0-dimethyl-β-cyclodextrin]
- cell growth by SRB-assay, extinction at 540 nm (cell line PC 3; incubation time 72 hours): 0.725 ± 0.200
- cell growth, % of control (cell line PC 3; incubation time 72 hours): (96%)
- cell growth, % of control (cell line PC 3; incubation time 96 hours): (102%)
- toxicity to the cells, in words (cell line PC 3): not toxic
- cell growth by SRB-assay, extinction at 540 nm (cell line K562; incubation time 72 hours): 0.819 ± 0.178
- cell growth, % of control (cell line K562; incubation time 72 hours): (74%)
- cell growth by SRB-assay, extinction at 540 nm (cell line K562; incubation time 96 hours): 1.729 ± 0.185
- cell growth, % of control (cell line K562; incubation time 96 hours): (110%)
- toxicity to the cells, in words (cell line K562): not toxic

SMILES: O=C(O)c1ccccc1Nc1cccc(C(F)(F)F)c1 [flufenamic acid]
- “aqueous” stability constant ([6]; aqueous, without methanol): 1300 M⁻¹
- stability constant ([6]; in the presence of 25% by volume methanol): about 400 M^31 1

SMILES: CC(=O)OCC(COC(C)=O)OC(C)=O [triacetine, 1,2,3-triacetyl-glycerol]
- LD50 (mouse): 1.2 mg/mL

SMILES: OC[C@H]1O[C@@H]2O[C@H]3[C@H](O)[C@@H](O)[C@@H](O[C@H]4[C@H](O)[C@@H](O)[C@@H](O[C@H]5[C@H](O)[C@@H](O)[C@@H](O[C@H]6[C@H](O)[C@@H](O)[C@@H](O[C@H]7[C@H](O)[C@@H](O)[C@@H](O[C@H]8[C@H](O)[C@@H](O)[C@@H](O[C@H]9[C@H](O)[C@@H](O)[C@@H](O[C@H]1[C@H](O)[C@H]2O)O[C@@H]9CO)O[C@@H]8CO)O[C@@H]7CO)O[C@@H]6CO)O[C@@H]5CO)O[C@@H]4CO)O[C@@H]3CO [γ-CD, γ-cyclodextrin]
- cell growth by SRB-assay, extinction at 540 nm (cell line PC 3; incubation time 72 hours): 0.582 ± 0.126
- cell growth, % of control (cell line PC 3; incubation time 72 hours): (77%)
- cell growth by SRB-assay, extinction at 540 nm (cell line PC 3; incubation time 96 hours): 0.937 ± 0,214
- cell growth, % of control (cell line PC 3; incubation time 96 hours): (71%)
- toxicity to the cells, in words (cell line PC 3): slightly toxic
- cell growth by SRB-assay, extinction at 540 nm (cell line K562; incubation time 72 hours): 0.555 ± 0.200
- cell growth, % of control (cell line K562; incubation time 72 hours): (50%)
- cell growth by SRB-assay, extinction at 540 nm (cell line K562; incubation time 96 hours): 0.531 ± 0,072
- cell growth, % of control (cell line K562; incubation time 96 hours): (34%)
- toxicity to the cells, in words (cell line K562): very toxic
